From BindingDB's records for doi:10.1073/pnas.0710981105 (Merck Research Laboratories, 2008) come the findings set out here.

The target of the test is T1, Bile acid receptor (Homo sapiens, UniProt Q96RI1).
T1 sequence (Q96RI1 whole entry): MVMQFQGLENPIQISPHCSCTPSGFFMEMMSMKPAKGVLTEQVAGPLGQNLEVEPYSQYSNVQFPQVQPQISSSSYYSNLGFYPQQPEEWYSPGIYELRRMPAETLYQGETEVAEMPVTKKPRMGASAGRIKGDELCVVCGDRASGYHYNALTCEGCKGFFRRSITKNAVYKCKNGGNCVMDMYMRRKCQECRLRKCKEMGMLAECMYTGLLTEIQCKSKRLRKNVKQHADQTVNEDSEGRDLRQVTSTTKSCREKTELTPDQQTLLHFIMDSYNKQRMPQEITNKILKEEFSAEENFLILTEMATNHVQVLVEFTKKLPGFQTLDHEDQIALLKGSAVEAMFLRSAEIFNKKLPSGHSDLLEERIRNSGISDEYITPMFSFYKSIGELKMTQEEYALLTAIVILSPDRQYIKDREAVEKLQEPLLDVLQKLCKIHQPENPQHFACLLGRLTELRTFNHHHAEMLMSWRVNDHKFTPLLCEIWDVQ
In words: HTRF Coactivator Recruitment Assay. As to conditions: pH 7; 4 °C. The method, then:
To each well of a 96-well assay plate, assay buffer was added containing purified GST-FXR, Eu-labeled anti-GST antibody (Perkin-Elmer), streptavidin-XL665 (Packard Instruments), biotin-tagged SRC-1 fragment. The binding reaction was initiated by the addition of compound.
Background: Time-resolved FRET reads energy transfer from a long-lived donor to a nearby acceptor.

`C[C@]12CCC(C(=O)O)=CC1=CCC1C2CC[C@@]2(C)C1CC[C@@H]2C(=O)c1ccc(O)cc1` (some centres not stated) [MFA-1] yielded an EC50 of 16.9 nM.

Take `C[C@]12CCC(C(=O)O)=CC1=CCC1C2CC[C@@]2(C)C1CC[C@@H]2C(=O)c1ccccc1` (some centres not stated) [MFA-2]: the half-maximal effective concentration (EC50) was determined as 509 nM.

For orientation: EC50 means the midpoint of the concentration-response curve. A lower EC50 goes with higher potency in that assay.
